In data set [1] the target is T1, human CA-II (CA2) (Homo sapiens (Human), UniProt P00918). Put plainly: biochemical.
Description: (§1) Cytiva Biacore S200, T200 and 3000 machines were used for all SPR experiments. […] For carbonic anhydrases, data were collected at a constant temperature of 25° C. Human CA-I (CA1) or human CA-II (CA2) was captured via standard EDC/NHS protocol on a Biacore CM5 chip using standard protocols in HBS-N buffer (10 mM HEPES (pH 7.4), 150 mM NaCl) at ˜2000 RU. The experiments were run in PBS buffer containing 0.05% Tween 20 and 3% DMSO. All compounds were initially screened at concentrations ranging from 23 nM to 50 µM or 4.6 nM to 10 µM, injecting from the lowest to highest concentrations and adjusting appropriately for each compound for repeat experiments. Scrubber 2 (Biologic software) was used to process and analyse SPR data. […] Data for the inhibitors were referenced to those for a blank surface and blank injections to normalise for non-specific binding and drift. A DMSO calibration was run to remove excluded volume effect of binding responses between reference and target surface.
In data set [2] the target is T2, human CA-I (CA1) (Homo sapiens (Human), UniProt P00915). Put plainly: biochemical.
Description: as §1
In data set [3] the target is T3, Human ENPP1 (Homo sapiens (Human), UniProt P22413). Put plainly: biochemical.
Description: (§2) ENPP1 catalyses the hydrolysis of ATP into AMP+PPi. AMP production was monitored using Bellbrooks Transcreener AMP/GMP TR-FRET assay kit (Cat No. 3020-10K) according to the manufacturer's instructions. The assay was run with 50 mM Tris pH 7.5, 5 mM MgCl2, 150 mM NaCl, 0.005% Tween20 and distilled H2O. Antibody and tracer were diluted to 2 nM. […] Mouse ENPP1 was run at 15 pM with ATP at 400 nM. AMP produced in the assay by ENPP1 activity competes with a far-red tracer labelled AMP bound to an AMP specific antibody resulting in a decrease in TR-FRET. ENPP1 inhibition reduces AMP production and increases the TR-FRET signal.
The target in data set [4] is ENPP1 expressed by MCF-7 cells (Homo sapiens (Human), UniProt P22413). Put plainly: cell-based.
Description: ENPP1 inhibition was assessed in a human cellular co-culture assay using THP1-Dual interferon reporter cells from InvivoGen (Cat No. thpd-nfis), see Goswami et al., 2022, and MCF-7 cancer cells.
MCF-7 cells were seeded at 10,000 cells/well in a 96 well plate and 24 h later compounds were added in DMEM+GlutaMAX media+2% Hyclone FBS, with a final DMSO of 0.2%. 2′3′-cGAMP was added at a final concentration of 10 μM and incubated for 30 mins at 37° C. 20,000 THP-1 cells were added per well and incubated for 48 h. IFN response was measured by Quanti-Luc Gold according to the manufacturer's instructions using 15 μL Quanti-Luc Gold per well. Luminescence was measured on an EnSight reader (PerkinElmer).
For data set [5], the target named is T3, Human ENPP1.
Description: as §2
A further data set deals with Alpl^Prx1 mouse. Put plainly: In vivo Model 1: Alpl^Prx1 mouse model of hypophosphatasia (HPP).
Data set [6] deals with T2, human CA-I (CA1). Put plainly: Surface plasmon resonance, carbonic anhydrase I. To be noted: 25° C., CM5 chip.
Description: as §1
For data set [7], the target named is T1, human CA-II (CA2). Put plainly: Surface plasmon resonance, carbonic anhydrase II. To be noted: 25° C., CM5 chip.
Description: as §1
The mark [8] stands for this setting: oral in diet, after 100 days of dosing.

Read-outs that look alike come from different tables or passages of the source.

T2 sequence (P00915 whole entry): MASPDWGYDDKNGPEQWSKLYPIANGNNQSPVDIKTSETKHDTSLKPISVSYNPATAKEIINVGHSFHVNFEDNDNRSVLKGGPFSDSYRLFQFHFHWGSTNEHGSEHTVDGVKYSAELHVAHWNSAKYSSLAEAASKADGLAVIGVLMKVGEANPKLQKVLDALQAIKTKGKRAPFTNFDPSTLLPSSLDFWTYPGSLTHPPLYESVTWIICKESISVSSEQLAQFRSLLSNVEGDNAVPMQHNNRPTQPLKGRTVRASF
T3 sequence (P22413 whole entry): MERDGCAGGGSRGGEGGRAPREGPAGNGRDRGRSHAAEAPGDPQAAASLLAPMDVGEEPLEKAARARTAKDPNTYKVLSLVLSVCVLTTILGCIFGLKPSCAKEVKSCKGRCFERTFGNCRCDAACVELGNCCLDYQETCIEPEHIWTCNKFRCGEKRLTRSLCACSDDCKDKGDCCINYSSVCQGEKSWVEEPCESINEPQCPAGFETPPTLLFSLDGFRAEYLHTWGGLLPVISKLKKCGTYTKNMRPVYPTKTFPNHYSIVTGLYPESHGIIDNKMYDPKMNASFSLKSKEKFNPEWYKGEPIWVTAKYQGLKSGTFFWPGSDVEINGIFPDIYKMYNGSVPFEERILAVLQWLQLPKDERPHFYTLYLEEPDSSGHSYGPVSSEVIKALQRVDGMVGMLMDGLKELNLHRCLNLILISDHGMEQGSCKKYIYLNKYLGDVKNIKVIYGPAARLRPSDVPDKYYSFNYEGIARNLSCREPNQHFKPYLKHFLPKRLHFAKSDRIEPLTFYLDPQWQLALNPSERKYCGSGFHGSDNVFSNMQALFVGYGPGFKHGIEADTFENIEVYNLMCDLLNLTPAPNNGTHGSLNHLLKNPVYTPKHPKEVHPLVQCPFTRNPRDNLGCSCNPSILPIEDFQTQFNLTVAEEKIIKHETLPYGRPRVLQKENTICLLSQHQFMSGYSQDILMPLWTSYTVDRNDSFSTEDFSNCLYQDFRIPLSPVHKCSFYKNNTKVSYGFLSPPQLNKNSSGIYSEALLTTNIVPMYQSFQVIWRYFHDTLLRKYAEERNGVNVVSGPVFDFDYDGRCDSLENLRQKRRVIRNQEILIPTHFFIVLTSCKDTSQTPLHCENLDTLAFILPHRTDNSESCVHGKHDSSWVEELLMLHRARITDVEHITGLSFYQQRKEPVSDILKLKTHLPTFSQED
Sequence of ENPP1 expressed by MCF-7 cells (P22413 whole entry): as above
Description for Alpl^Prx1 mouse: Bone tissues were fixed in 4% PFA.
PPi levels were measured using a standard method involving ATPsulfurylase. […] ATP converted from PPi in the samples was mixed with BacTiter-Glo (Promega) and luminescence was quantified in duplicated reactions using a iD3X plate reader (Molecular Device). Values obtained from reactions without ATPsulfurylase were subtracted to eliminate ATP which possibly existed in the plasma samples.
Plasma chemistry was performed using Vetscan VS2 analyzer with Comprehensive Diagnostic Profiles rotor (Abaxis). […] Mouse OPN was measured with Quantikine®-ELISA kit (R&D).
Radiographic images were obtained by using XPERT 80-Kubtec Scientific.
Three stained sections per mouse were analyzed by Keyence microscope to obtain an average value of mineralized area. Five mice per genotype were used (n=5).

In the case of `Cc1cc2n(Cc3ccc(S(C)(=N)=O)cc3)cc(C(C)C)c(=O)n2n1` (racemic) [9 Rac], the Kd on human CA-II (CA2) [1] and on human CA-I (CA1) [2] was over 100 mM each time.

As to `CCc1nc2n(Cc3ccc(S(C)(=N)=O)cc3)cc(C(C)C)c(=O)n2n1` (racemic) [31 Rac], the Kd on human CA-II (CA2) [1] and on human CA-I (CA1) [2] was over 100 mM throughout.

At Human ENPP1 [3], `CC(C)c1cn(Cc2ccc(S(C)(=N)=O)cc2)c2nc(CC(F)(F)F)nn2c1=O` (racemic) [32 Rac] showed an EC50 of 7.94 nM. The Kd at human CA-II (CA2) [1] and on human CA-I (CA1) [2] was over 100 mM in each case.

In the case of `CCS(=N)(=O)c1ccc(Cn2cc(C(C)C)c(=O)n3nc(C4CC4)nc23)cc1` (racemic) [56 Rac], a half-maximal effect at Human ENPP1 [3] (EC50) was put at 2.51 nM. For the same compound, the Kd at human CA-II (CA2) [1] was 0.0316 mM.

`Cc1cc(Cn2cc(C(C)C)c(=O)n3nc(C4CC4)cc23)ccc1S(C)(=N)=O` (racemic) [58 Rac]: at Human ENPP1 [3], the half-maximal effective concentration (EC50) is 2 nM. Further, the Kd at human CA-I (CA1) [2] is over 100 mM.

Consider `CC(C)c1cn(C[C@H]2C[C@H]3C[C@@H]2CN3S(N)(=O)=O)c2nc(C(F)(F)F)nn2c1=O` (racemic) [Compound 36, rac-(1R,4R,5R)-5-((6-isopropyl-7-oxo-2-(trifluoromethyl)-[1,2,4]triazolo[1,5-a]pyrimidin-4(7H)-yl)methyl)-2-azabicyclo[2.2.1]heptane-2-sulfonamide], for which, at human CA-I (CA1) [2], the Kd was over 100 mM.

Take `CC(C)c1cn(Cc2ccc([S@@](C)(=N)=O)cc2)c2cc(C3CC3)nn2c1=O` (single isomer, unassigned) [Compound 3B]: on human CA-II (CA2) [1], the Kd is over 100 mM.

`Cc1cc2n(Cc3ccc(S(C)(=N)=O)cc3)cc(C(C)C)c(=O)n2n1` (single isomer, unassigned) [Compound 9A]: the Kd on human CA-II (CA2) [1] and at human CA-I (CA1) [2] was over 100 mM in each case.

For `CCc1nc2n(Cc3ccc([S@@](C)(=N)=O)cc3)cc(C(C)C)c(=O)n2n1` (single isomer, unassigned) [Compound 31A], the Kd at human CA-II (CA2) [1] and at human CA-I (CA1) [2] was over 100 mM each time.

`CCc1nc2n(Cc3ccc([S@](C)(=N)=O)cc3)cc(C(C)C)c(=O)n2n1` (single isomer, unassigned) [Compound 31B]: the Kd at human CA-II (CA2) [1] and at human CA-I (CA1) [2] was over 100 mM throughout.

Turning to `CC(C)c1cn(Cc2ccc(S(C)(=N)=O)cc2)c2nc(CC(F)(F)F)nn2c1=O` (single isomer, unassigned) [Compound 32A], the EC50 was 79.4 nM in data set [4] and 6.31 nM on Human ENPP1 [3]. For the same compound, the Kd at human CA-II (CA2) [1] and on human CA-I (CA1) [2] was over 100 mM in each case.

With `CC(C)c1cn(Cc2ccc([S@@](C)(=N)=O)cc2)c2nc(CC(F)(F)F)nn2c1=O` (single isomer, unassigned) [Compound 32B], the Kd on human CA-II (CA2) [1] and on human CA-I (CA1) [2] was over 100 mM throughout.

On to `CC(C)c1cn(Cc2ccc([S@@](=N)(=O)C3CC3)cc2)c2nc(C3CC3)nn2c1=O` (single isomer, unassigned) [Compound 55], for which the EC50 on Human ENPP1 [5] was 0.316 nM; in data set [4], 25.1 nM.

Turning to `CC[S@](=N)(=O)c1ccc(Cn2cc(C(C)C)c(=O)n3nc(C4CC4)nc23)cc1` (single isomer, unassigned) [Compound 56A], the results for the EC50 (at Human ENPP1 [5]; in data set [4]) were 1 nM and 39.8 nM, respectively.

In the case of `Cc1cc(Cn2cc(C(C)C)c(=O)n3nc(C4CC4)cc23)ccc1[S@@](C)(=N)=O` (single isomer, unassigned) [Compound 58A], the EC50 on Human ENPP1 [5] was 1.26 nM; in data set [4] it was 200 nM.

In the case of `Cc1cc(Cn2cc(C(C)C)c(=O)n3nc(C4CC4)nc23)ccc1[S@](C)(=N)=O` (single isomer, unassigned) [Compound 65], the EC50 is 1.58 nM at Human ENPP1 [5] and 39.8 nM in data set [4].

Take `CC(C)c1cn(Cc2ccc([S@](C)(=N)=O)c(F)c2)c2cc(C3CC3)nn2c1=O` (single isomer, unassigned) [Compound 72]: the EC50 on Human ENPP1 [5] is 2.51 nM; in data set [4], 200 nM.

In the case of `CC(C)c1cn(Cc2ccc(S(N)(=O)=O)cc2)c2nc(C3CC3)nn2c1=O` [Compound 11, 4-((2-cyclopropyl-6-isopropyl-7-oxo-[1,2,4]triazolo[1,5-a]pyrimidin-4(7H)-yl)methyl)benzenesulfonamide], in the data set with Alpl^Prx1 mouse (male and female mice, oral in diet, 100 days), the “Bone mineralization of the bone cortex (X-ray, tibia / knee joints)” value is “increased bone mineralization”. In addition, in the data set on Alpl^Prx1 mouse (male mice, WT, control and treated), the “Plasma chemistry (significant changes; transaminase, amylase, BUN, Ca)” value was “only observed between WT and HPP mice”. In the data set with Alpl^Prx1 mouse (oral in diet, 100 days), the “Mineralization of L3 vertebrate bone (bone morphometry, Von Kossa)” value is “increased to the levels of wild-type mice” and the “Mineralization of trabecular bones of the distal femur (bone morphometry, Von Kossa)” value is recorded as “slight improvement in mineralization”. For the same compound, in the data set on Alpl^Prx1 mouse (setting [8]), the “Plasma AP levels” value was “did not affect”, the “Plasma OPN levels” value is given as “did not affect” and the “Plasma PPi levels” value is “reduced to the levels of WT mice”.

For `CC(C)c1cn(Cc2ccc(S(N)(=O)=O)c(-c3ccccc3)n2)c2nc(C3CC3)nn2c1=O` [Compound 27, 6-((2-cyclopropyl-6-isopropyl-7-oxo-[1,2,4]triazolo[1,5-a]pyrimidin-4(7H)-yl)methyl)-2-phenylpyridine-3-sulfonamide], the results for the EC50 (at Human ENPP1 [5]; in data set [4]) were 6.31 nM and 251 nM, respectively. Besides, the “CA1 human SPR pKD” value on human CA-I (CA1) [6] is given as 3.0. Also, the “CA2 human SPR pKD” value on human CA-II (CA2) [7] turned out to be 3.0.

`CNc1nc(S(N)(=O)=O)ccc1Cn1cc(C(C)C)c(=O)n2nc(C3CC3)nc12` [Compound 29, 5-((2-cyclopropyl-6-isopropyl-7-oxo-[1,2,4]triazolo[1,5-a]pyrimidin-4(7H)-yl)methyl)-6-(methylamino)pyridine-2-sulfonamide]: binding at human CA-II (CA2) [1] was put at a Kd of 0.0316 mM.

For `CC(C)c1nc2n(Cc3ccc(S(C)(=N)=O)cc3)cc(C(C)C)c(=O)n2n1` (centres unmarked) [Compound 30, 2,6-diisopropyl-4-(4-(S-methylsulfonimidoyl)benzyl)-[1,2,4]triazolo[1,5-a]pyrimidin-7(4H)-one], the EC50 on Human ENPP1 [5] was 3.98 nM; in data set [4] it was 79.4 nM. Further, the “CA1 human SPR pKD” value on human CA-I (CA1) [6] is under 1. Further, the “CA2 human SPR pKD” value on human CA-II (CA2) [7] was under 1.

The compound `CC(C)c1cn(C[C@@H]2C[C@@H]3C[C@H]2CN3S(N)(=O)=O)c2ncnn2c1=O` [Compound 37, (1R,4R,5R)-5-((6-isopropyl-7-oxo-[1,2,4]triazolo[1,5-a]pyrimidin-4(7H)-yl)methyl)-2-azabicyclo[2.2.1]heptane-2-sulfonamide] returned a Kd on human CA-I (CA1) [2] of over 100 mM.

Consider `CC(C)c1cn(Cc2ccc(S(=N)(=O)C3CC3)cc2)c2nc(C3CC3)nn2c1=O` (centres unmarked) [Compound 54, 4-(4-(Cyclopropanesulfonimidoyl)benzyl)-2-cyclopropyl-6-isopropyl-[1,2,4]triazolo[1,5-a]pyrimidin-7(4H)-one], for which the EC50 at Human ENPP1 [5] was 1.26 nM; in data set [4], 39.8 nM.

Regarding `Cc1cc(Cn2cc(C(C)C)c(=O)n3nc(C4CC4)nc23)ccc1S(C)(=N)=O` (centres unmarked) [Compound 71, 2-Cyclopropyl-6-isopropyl-4-(3-methyl-4-(S-methylsulfonimidoyl)benzyl)-[1,2,4]triazolo[1,5-a]pyrimidin-7(4H)-one], the EC50 at Human ENPP1 [5] is 3.16 nM; in data set [4], 251 nM.

(Values after patent US20260001886A1, “ENPP1 INHIBITORS I” (RE Ventures I, LLC, priority 2024, published 2026).)
